# In US7244731B2, “6-Methylpyridine derivatives, method for preparing thereof and antiviral pharmaceutical composition comprising the same” (B & C Biopharm, priority 2002, dated 2007):
# What was measured:
# [1] = molecular target: T1, HCV RNA polymerase (RNA dependent RNA polymerase, NS5B) (Hepatitis C virus genotype 1b, UniProt P26663); assay: Inhibitory effect on activity of recombinant HCV RNA polymerase in vitro; type: biochemical, Hepatitis C virus (HCV-1b type)
# T1 construct: NS5B region (1773 bps) was amplified by PCR and cloned into pVLHIS; (His)6; made in house; host or cells: Sf9 insect cells infected with recombinant baculovirus (pVLHIS-NS5B)
# Protocol: Test of Inhibitory Effect on Activity of HCV RNA Polymerase (RNA Dependent RNA Polymerase, NS5B) In Vitro
# The following in vitro experiments were conducted to find out the effect of inhibition activity of compounds of the present invention against HCV RNA Polymerase (RNA dependent RNA polymerase, NS5B).
# HCV cDNA was obtained from the blood of HCV-1b type HCV patient and NS5B region (1773 bps) was amplified by PCR and cloned into pVLHIS, a baculovirus transfer vector, to prepare recombinant transfer vector. The prepared transfer vector and the wild-type AcNPV vector were cotransfected into Sf 9 cell line to yield recombinant baculovirus with the histidine-tagged recombinant vector pVLHIS-NS5B. Sufficiently cultured insect cells were infected with the resulting recombinant baculovirus and cultured in Grace' medium containing 10% FBS for 3–4 days. The culture broth was centrifuged to obtain only the infected cells. The cells were washed three times with PBS and resuspended in binding buffer [50 mM Na-phosphate (pH 8.0), 30 mM NaCl, 10 mM imidazole, 1 mM DTT, 10% glycerol, 1% NP-40], sonicated and the clearized lysate was obtained. Recombinant NS5B was purified by affinity column chromatography using a Ni-NTA His bind resin (Novagen) to produce pure NS5B protein. The (His)6-tagged NS5B was bound to Ni-NTA resin and washed with the binding buffer containing 50 mM imidazole. The bound NS5B was eluted with the binding buffer containing imidazole in a step-gradient manner (100–300 mM). The NS5B protein fractions were dialyzed against buffer [50 mM Tris-HCl, 50 mM NaCl, 1 mM DTT, […], 10% glycerol], followed by at −70° C. in a small aliquot.
# The 3′UTR cDNA (220 bp) of HCV was obtained from 1b HCV RNA of the blood of a hepatitis C patient by PCR and cloned into pcDNA3 vector. Linearized DNA fragment containing 3′-UTR was prepared using the restriction enzyme, EcoRI and used as a temperate for in vitro transcription using T7 RNA ploymerase to prepare RNA fragment containing 3′-UTR.
# In Vitro inhibitory activity of the compounds of the present invention against recombinant HCV RNA polymerase was measured as follows.
# A streptavidin-coated well plate was prepared suitable for the sample to be examined. 25 μl of 2× assay buffer [50 mM Tris-Cl (pH 7.5), 100 mM NaCl, 10 mM MgCl2, 20 mM KCl, 1 mM EDTA, 1 mM DTT] and 10 μl of purified HCV RNA polymerase 200 ng and 3′-UTR template RNA were added to each well. Then, 5 μl of the sample to be examined was added to have final concentrations of 10, 1, 0.1 and 0.01 μg/mL. […] The optical density (OD) was measured using an ELISA reader (Bio-Tek instrument Co.) at 405 nm. The inhibitory effect on the activity of HCV polymerase was calculated by subtracting the OD of the positive control without the sample.
# [2] = Cytotoxicity assay (MTT assay); type: cell-based; conditions: human, HepG2 cells, HepG 2 cell line
# Protocol: To find out cytotoxicity of 6-methylpyridine derivative of the chemical formula 1, an in vitro experiment was conducted on the basis of the generally known MTT assay using HepG 2 cell line.
# T1 sequence (P26663 2420-3010): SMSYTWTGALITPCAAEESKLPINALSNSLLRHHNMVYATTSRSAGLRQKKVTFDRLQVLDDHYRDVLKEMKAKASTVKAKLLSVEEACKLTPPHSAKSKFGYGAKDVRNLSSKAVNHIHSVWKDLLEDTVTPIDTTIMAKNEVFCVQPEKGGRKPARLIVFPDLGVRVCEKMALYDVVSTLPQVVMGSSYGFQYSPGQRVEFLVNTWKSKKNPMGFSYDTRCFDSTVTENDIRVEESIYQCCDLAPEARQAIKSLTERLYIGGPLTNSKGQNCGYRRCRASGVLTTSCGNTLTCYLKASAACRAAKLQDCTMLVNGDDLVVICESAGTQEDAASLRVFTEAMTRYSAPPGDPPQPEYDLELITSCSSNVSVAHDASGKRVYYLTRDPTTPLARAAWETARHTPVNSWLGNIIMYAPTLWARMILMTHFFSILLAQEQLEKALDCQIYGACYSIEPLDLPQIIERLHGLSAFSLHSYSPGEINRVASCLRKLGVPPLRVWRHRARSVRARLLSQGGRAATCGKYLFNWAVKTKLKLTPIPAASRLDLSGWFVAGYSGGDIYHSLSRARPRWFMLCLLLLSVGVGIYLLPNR
compound,measurement,setting,value
"Cc1ccc(C(=O)O)c(Nc2ccc(N3CCOCC3)cc2)n1 [Example 1, 6-methyl-2-[4-(4-morpholino)anilino] nicotinic acid]",Inhibition of activity of HCV RNA polymerase (%),[1]; 0.01 μg/ml,46%
same,Inhibition of activity of HCV RNA polymerase (%),[1]; 0.1 μg/ml,65%
same,Inhibition of activity of HCV RNA polymerase (%),[1]; 1 μg/ml,82%
same,Inhibition of activity of HCV RNA polymerase (%),[1]; 10 μg/ml,99%
same,CC50,[2],> 100 µg/mL
